EC50 data for seven compounds are collected here from article PMC6287471 (International Journal for Parasitology: Drugs and Drug …, 2018).

Common to all, as to assay type: cell-based
In assay [1] the target is T1, Hco-ACC-2 F200Y (Haemonchus contortus, UniProt A0A219KWM7, F200Y).
T1 sequence (A0A219KWM7 18-443 F200Y): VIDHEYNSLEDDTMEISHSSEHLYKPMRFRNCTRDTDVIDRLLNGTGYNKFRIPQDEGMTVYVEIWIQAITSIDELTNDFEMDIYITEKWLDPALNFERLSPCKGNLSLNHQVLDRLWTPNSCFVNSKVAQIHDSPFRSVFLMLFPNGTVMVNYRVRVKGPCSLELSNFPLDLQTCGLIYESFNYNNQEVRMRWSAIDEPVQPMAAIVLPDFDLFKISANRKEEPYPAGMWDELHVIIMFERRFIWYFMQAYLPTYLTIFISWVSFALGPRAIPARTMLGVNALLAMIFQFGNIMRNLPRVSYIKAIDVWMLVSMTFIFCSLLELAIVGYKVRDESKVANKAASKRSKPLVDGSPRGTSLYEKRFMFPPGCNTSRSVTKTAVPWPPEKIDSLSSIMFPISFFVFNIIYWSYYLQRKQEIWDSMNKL
Briefly: Two-electrode voltage clamp of Hco-ACC-2 F200Y mutant in Xenopus laevis oocytes.

For assay [2], the target named is T2, Hco-ACC-2 F200W (Haemonchus contortus, UniProt A0A219KWM7, F200W).
T2 sequence (A0A219KWM7 18-443 F200W): T1 sequence (A0A219KWM7 18-443 F200Y)
The assay is described as follows: Two-electrode voltage clamp of Hco-ACC-2 F200W mutant in Xenopus laevis oocytes.

For assay [3], the target named is T3, Hco-ACC-2 F200W/W248F (Haemonchus contortus, UniProt A0A219KWM7, F200W/W248F).
T3 sequence (A0A219KWM7 18-443 F200W/W248F): T1 sequence (A0A219KWM7 18-443 F200Y)

In assay [4] the target is T4, Hco-ACC-2 W248F (Haemonchus contortus, UniProt A0A219KWM7, W248F).
T4 sequence (A0A219KWM7 18-443 W248F): T1 sequence (A0A219KWM7 18-443 F200Y)
Briefly: Two-electrode voltage clamp of Hco-ACC-2 W248F mutant in Xenopus laevis oocytes.

For assay [5], the target named is T5, Hco-ACC-2 W248Y (Haemonchus contortus, UniProt A0A219KWM7, W248Y).
T5 sequence (A0A219KWM7 18-443 W248Y): T1 sequence (A0A219KWM7 18-443 F200Y)
Briefly: Two-electrode voltage clamp of Hco-ACC-2 W248Y mutant in Xenopus laevis oocytes. In general terms: In two-electrode clamp one electrode senses voltage and the other passes current.

Where [6] appears, read: EC50 ± standard error, F200Y, F200Y mutant, n ≥ 5 oocytes.

Where a name gives a salt, the structure may show the parent alone.

For orientation: EC50 means the midpoint of the concentration-response curve. Lower therefore signals higher potency in that assay.

With `C[N+](C)(C)CCOC(N)=O` [Carbachol, Carbamoylcholine Chloride], the EC50 in assay [1] (setting [6]) was 9.7 ± 0.5 µM; in assay [2], 67 ± 4 µM; in assay [3], greater than 20 mM; in assay [4], greater than 1 mM; in assay [5] it was greater than 1 mM.
For the compound `C[N+](C)(C)CCO` [Choline, Choline Chloride], the concentration giving a half-maximal response (EC50) was 650 ± 13 µM in assay [1] (setting [6]); 4770 ± 543 µM in assay [2]; greater than 20 mM in assay [3]; greater than 1 mM in assay [4]; greater than 1 mM in assay [5].
Regarding `c1ccc([C@H]2CN3CCSC3=N2)cc1` [Levamisole, Levamisole Hydrochloride], the EC50 in assay [1] (setting [6]) was 39 ± 3 µM; in assay [3], greater than 20 mM; in assay [4], greater than 1 mM; in assay [5], greater than 1 mM.
Turning to `CC(=O)OC(C)C[N+](C)(C)C` (stereo not drawn) [Methacholine, Acetyl-β-methylcholine Chloride], the EC50 in assay [1] (setting [6]) is 20 ± 1 µM; in assay [2] it was 644 ± 84 µM; in assay [3], greater than 20 mM; in assay [4], greater than 1 mM; in assay [5], greater than 1 mM.
For the compound `CN1CCC[C@H]1c1cccnc1` [Nicotine], the EC50 in assay [1] (EC50, F200Y mutant) is 277 ± 8 µM.
Take `CN1CCCN=C1/C=C/c1cccs1` [Pyrantel, Pyrantel Citrate Salt]: the EC50 in assay [1] (setting [6]) was 44 ± 2 µM; in assay [2], 160 ± 20 µM; in assay [3] it was greater than 20 mM; in assay [4] it was greater than 1 mM; in assay [5], greater than 1 mM.
`CC(C[N+](C)(C)C)OC(N)=O` (stereo not drawn) [Urecholine, Carbamyl-β-methylcholine chloride]: the EC50 in assay [1] (setting [6]) is 81 ± 3 µM; in assay [2], 2150 ± 215 µM; in assay [3] it was greater than 20 mM; in assay [4] it was greater than 1 mM; in assay [5], greater than 1 mM.
